Results from patent publication US20220064696A1, “TARGET ENGAGEMENT ASSAY FOR RAS PROTEINS” (Promega Corporation, priority 2020, published 2022).
Values belong to the molecule of their own block, whether it stands above or below them.

Key:
Format in all cases: binding
KRAS2B(G12V) [1] = target: T1, KRAS2B(G12V) (Homo sapiens, UniProt P01116, G12V); test: Target engagement at KRAS(G12V) homomultimeric complexes, NanoBiT oligomer configuration with SmBiT tag; conditions: live HEK293 cells, LgBiT-KRAS2B(G12V) and SmBiT-KRAS2B(G12V)
T1 construct: expressed in transfected cells; host or cells: HEK293
Procedure: (§1) To explore this concept, the NanoBiT™ Technology was used to observe KRAS multimeric (e.g., dimer) complexes by NanoBiT tagging of KRAS, wherein BRET donor signal originates from an oligomeric KRAS. In a tissue culture flask, HEK293 cells per well were transfected with KRAS-NanoBiT fusions, LgBiT-KRAS2B(G12V) and SmBiT-KRAS2B(G12V) expressed from pNB3K or pNB4K plasmids along with pGEM-3Z carrier DNA (1:1:8 ratio by mass). Transfections were performed using 3:1 FuGENE HD:plasmid ratios. 24 hours post transfection, cells were treated with compound JRW-2192 and BI-2852.
(§2) After incubation in live cells, NanoBRET-TE substrate solution was added to a final concentration of 1×, and BRET was measured on a Glomax Discover plate reader.

KRAS2B(G12C) [2] = target: T2, KRAS2B(G12C) (Homo sapiens, UniProt P01116, G12C); test: KRAS(G12C) homomultimeric complexes, NanoBiT oligomer configuration with HiBiT tag; conditions: LgBiT-KRAS2B(G12C) and HiBiT-KRAS2B(G12C)
T2 construct: expressed in transfected cells; host or cells: HEK293
Procedure: as §1, with “form” for “observe”, “LgBiT-KRAS2B(G12C)” for “LgBiT-KRAS2B(G12V)”, “HiBiT-KRAS2B(G12C)” for “SmBiT-KRAS2B(G12V)”, “pFN38A” for “pNB4K”, “JRW-2220” for “JRW-2192”
as §2
The assay was also performed in digitonin permeabilized cells. Even after permeabilization, donor signal levels remained significant due to the use of the HiBiT tag, facilitating measurement of target engagement.

KRAS2B(G12C) [3] = target: T2, KRAS2B(G12C); test: Target engagement at KRAS(G12C) homomultimeric complexes, NanoBiT oligomer configuration with SmBiT tag; conditions: LgBiT-KRAS2B(G12C) and SmBiT-KRAS2B(G12C)
Procedure: as §1, with “LgBiT-KRAS2B(G12C)” for “LgBiT-KRAS2B(G12V)”, “SmBiT-KRAS2B(G12C)” for “SmBiT-KRAS2B(G12V)”, “JRW-2220” for “JRW-2192”
as §2
The assay was also performed in digitonin permeabilized cells.

KRAS2B(G13D) = target: T3, KRAS2B(G13D) (Homo sapiens, UniProt P01116, G13D); test: RAS NanoBiT target engagement assay in cells (LgBiT-RAS and SmBiT-RAS); conditions: HEK293 cells, tracer JRW-2310, FIG. 24
T3 construct: expressed in transfected cells; host or cells: HEK293
Procedure: (§3) To explore this concept, the NanoBiT™ Technology was used to form RAS multimeric (e.g., dimer) complexes by NanoBiT tagging of RAS, wherein BRET donor signal originates from an oligomeric RAS. In a tissue culture flask, HEK293 cells per well were transfected with RAS-NanoBiT fusions, LgBiT-RAS and SmBiT-RAS expressed from pNB3K or pNB4K plasmids along with pGEM-3Z carrier DNA (1:1:8 ratio by mass). Transfections were performed using 3:1 FuGENE HD:plasmid ratios. 24 hours post transfection, cells were treated with compound JRW-2219, JRW-2220, or JRW-2310, and BI-2852.

KRAS2B(Q61L) = target: T4, KRAS2B(Q61L) (Homo sapiens, UniProt P01116, Q61L); test: as above; conditions: HEK293 cells, tracer JRW-2310, FIG. 23
T4 construct: expressed in transfected cells; host or cells: HEK293
Procedure: as §3

KRAS2B = target: T5, KRAS2B (Homo sapiens, UniProt P01116); test: as above; conditions: HEK293 cells, tracer JRW-2219, FIGS. 10-11
T5 construct: expressed in transfected cells; host or cells: HEK293
Procedure: as §3

KRAS2B(Q61H) = target: T6, KRAS2B(Q61H) (Homo sapiens, UniProt P01116, Q61H); test: as above; conditions: HEK293 cells, tracer JRW-2310, FIG. 22
T6 construct: expressed in transfected cells; host or cells: HEK293
Procedure: as §3

KRAS2B(G12V) [4] = target: T1, KRAS2B(G12V); test: as above; conditions: HEK293 cells, tracer JRW-2219 or JRW-2220, FIGS. 16-17
Procedure: as §3

KRAS2B(G12D) = target: T7, KRAS2B(G12D) (Homo sapiens, UniProt P01116, G12D); test: as above; conditions: HEK293 cells, tracer JRW-2219 or JRW-2220, FIGS. 14-15
T7 construct: expressed in transfected cells; host or cells: HEK293
Procedure: as §3

KRAS2B(Q61R) = target: T8, KRAS2B(Q61R) (Homo sapiens, UniProt P01116, Q61R); test: as above; conditions: HEK293 cells, tracer JRW-2310, FIG. 21
T8 construct: expressed in transfected cells; host or cells: HEK293
Procedure: as §3

KRAS2B(G12C) [5] = target: T2, KRAS2B(G12C); test: as above; conditions: HEK293 cells, tracer JRW-2219 or JRW-2220, FIGS. 12-13
Procedure: as §3

HRAS1 = target: T9, HRAS1 (Homo sapiens, UniProt P01112); test: as above; conditions: HEK293 cells, LgBiT-HRAS1 and SmBiT-HRAS1, tracer JRW-2219 or JRW-2220, FIGS. 18-19
T9 construct: expressed in transfected cells; host or cells: HEK293
Procedure: as §3

KRAS^G12V [6] = target: T10, KRAS^G12V (Homo sapiens, UniProt P01116, G12V); test: NanoLuc fusion BRET target engagement assay in cells, tracer JRW-2025; conditions: HEK293 cells, tracer JRW-2025, FIG. 4
T10 construct: expressed in transfected cells; host or cells: HEK293
Procedure: (§4) Luminescence was produced from either NanoLuc (Nluc) tagging of KRAS as the BRET donor, or by NanoBiT tagging of KRAS, wherein BRET donor signal originates from KRAS multimeric species in cells. In 96-well plates, 20,000 HEK293 cells per well were transfected with KRAS-Nluc fusions or KRAS-NanoBiT fusions expressed from pFN31K and pFN32K plasmids. Transfections were performed using 3:1 FuGENE HD:plasmid ratios. […] After incubation, NanoBRET-TE substrate solution was added to a final concentration of 1×, and BRET was measured on a Glomax Discover plate reader.

KRAS [7] = target: T11, KRAS (Homo sapiens, UniProt P01116); test: as above; conditions: HEK293 cells, wild-type KRAS-NanoLuc fusion, tracer JRW-2025, FIG. 4
T11 construct: expressed in transfected cells; host or cells: HEK293
Procedure: as §4

KRAS^G12C [8] = target: T12, KRAS^G12C (Homo sapiens, UniProt P01116, G12C); test: as above; conditions: HEK293 cells, tracer JRW-2025, FIG. 4
T12 construct: expressed in transfected cells; host or cells: HEK293
Procedure: as §4

KRAS^G12D [9] = target: T13, KRAS^G12D (Homo sapiens, UniProt P01116, G12D); test: as above; conditions: HEK293 cells, tracer JRW-2025, FIG. 4
T13 construct: expressed in transfected cells; host or cells: HEK293
Procedure: as §4

KRAS^G12V [10] = target: T10, KRAS^G12V; test: NanoBiT BRET target engagement assay in cells, LgBiT and SmBiT fusions, tracer JRW-2111; conditions: HEK293 cells, tracer JRW-2111, FIGS. 2-3
Procedure: as §4

KRAS [11] = target: T11, KRAS; test: as above; conditions: HEK293 cells, wild-type KRAS LgBiT/SmBiT fusions, tracer JRW-2111, FIGS. 2-3
Procedure: as §4

KRAS^G12C [12] = target: T12, KRAS^G12C; test: as above; conditions: HEK293 cells, tracer JRW-2111, FIGS. 2-3
Procedure: as §4

KRAS^G12D [13] = target: T13, KRAS^G12D; test: as above; conditions: HEK293 cells, tracer JRW-2111, FIGS. 2-3
Procedure: as §4

Compound: O=C(CCc1ccc2n1[B-](F)(F)[N+]1=C(c3ccc[nH]3)C=CC1=C2)NCCOCCOCCOCCOCCC(=O)NCc1cccc(Cn2ccc3ccc(CNCc4[nH]c5ccccc5c4C4NC(=O)c5ccc(O)cc54)cc32)c1 (stereo not shown) [JRW-2192, 1-(3-(5,5-difluoro-7-(1H-pyrrol-2-yl)-5H-5λ^4,6λ^4-dipyrrolo[1,2-c:2′,1′-f][1,3,2]diazaborinin-3-yl)propanamido)-N-(3-((6-((((3-(6-hydroxy-3-oxoisoindolin-1-yl)-1H-indol-2-yl)methyl)amino)methyl)-1H-indol-1-yl)methyl)benzyl)-3,6,9,12-tetraoxapentadecan-15-amide]
BRET signal with increasing concentrations of the tracer (KRAS2B(G12V) [1]; FIG. 5): dose-dependent increase in the BRET signal

Compound: O=C(CCOCCOCCOCCOCCNC(=O)CCc1ccc2n1[B-](F)(F)[N+]1=C(c3ccc[nH]3)C=CC1=C2)NCCCn1cnc(Cn2ccc3ccc(CNCc4[nH]c5ccccc5c4C4NC(=O)c5ccc(O)cc54)cc32)c1 (stereo not shown) [JRW-2220, 1-(3-(5,5-difluoro-7-(1H-pyrrol-2-yl)-5H-5λ^4,6λ^4-dipyrrolo[1,2-c:2′,1′-f][1,3,2]diazaborinin-3-yl)propanamido)-N-(3-(4-((6-((((3-(6-hydroxy-3-oxoisoindolin-1-yl)-1H-indol-2-yl)methyl)amino)methyl)-1H-indol-1-yl)methyl)-1H-imidazol-1-yl)propyl)-3,6,9,12-tetraoxapentadecan-15-amide]
BRET signal with increasing concentrations of the tracer (KRAS2B(G12C) [2]; digitonin permeabilized HEK293 cells, FIG. 9): dose-dependent increase in the BRET signal | BRET signal with increasing concentrations of the tracer (KRAS2B(G12C) [2]; live HEK293 cells, FIG. 8): dose-dependent increase in the BRET signal | BRET signal with increasing concentrations of the tracer (KRAS2B(G12C) [3]; digitonin permeabilized HEK293 cells, FIG. 7): dose-dependent increase in the BRET signal | BRET signal with increasing concentrations of the tracer (KRAS2B(G12C) [3]; live HEK293 cells, FIG. 6): dose-dependent increase in the BRET signal

target engagement (BRET, competition with the RAS binding agent) (KRAS2B(G13D)): target engagement was observed | target engagement (BRET, competition with the RAS binding agent) (KRAS2B(Q61L)): target engagement was observed | target engagement (BRET, competition with the RAS binding agent) (KRAS2B): target engagement was observed | target engagement (BRET, competition with the RAS binding agent) (KRAS2B(Q61H)): target engagement was observed | target engagement (BRET, competition with the RAS binding agent) (KRAS2B(G12V) [4]): target engagement was observed | target engagement (BRET, competition with the RAS binding agent) (KRAS2B(G12D)): target engagement was observed | target engagement (BRET, competition with the RAS binding agent) (KRAS2B(Q61R)): target engagement was observed | target engagement (BRET, competition with the RAS binding agent) (KRAS2B(G12C) [5]): target engagement was observed | target engagement (BRET, competition with the RAS binding agent) (HRAS1): target engagement was observed | competition with the KRAS binding agent (BRET) (KRAS^G12V [6]): competition was observed | competition with the KRAS binding agent (BRET) (KRAS [7]): competition was observed | competition with the KRAS binding agent (BRET) (KRAS^G12C [8]): competition was observed | competition with the KRAS binding agent (BRET) (KRAS^G12D [9]): competition was observed | target engagement (competition with the KRAS binding agent, BRET) (KRAS^G12V [10]): target engagement was observed | target engagement (competition with the KRAS binding agent, BRET) (KRAS [11]): target engagement was observed | target engagement (competition with the KRAS binding agent, BRET) (KRAS^G12C [12]): target engagement was observed | target engagement (competition with the KRAS binding agent, BRET) (KRAS^G12D [13]): target engagement was observed
Compound: Cn1cnc(Cn2ccc3ccc(CNCc4[nH]c5ccccc5c4[C@H]4NC(=O)c5ccc(O)cc54)cc32)c1 [BI-2852]
inhibition of the BRET signal induced by the tracer (functional competition) (KRAS2B(G12C) [2]; digitonin permeabilized HEK293 cells, tracer JRW-2220, FIG. 9): dose-dependent inhibition of the BRET signal | inhibition of the BRET signal induced by the tracer (functional competition) (KRAS2B(G12C) [2]; live HEK293 cells, tracer JRW-2220, FIG. 8): dose-dependent inhibition of the BRET signal | inhibition of the BRET signal induced by the tracer (functional competition) (KRAS2B(G12V) [1]; tracer JRW-2192, FIG. 5): dose-dependent inhibition of the BRET signal | inhibition of the BRET signal induced by the tracer (functional competition) (KRAS2B(G12C) [3]; digitonin permeabilized HEK293 cells, tracer JRW-2220, FIG. 7): dose-dependent inhibition of the BRET signal | inhibition of the BRET signal induced by the tracer (functional competition) (KRAS2B(G12C) [3]; live HEK293 cells, tracer JRW-2220, FIG. 6): dose-dependent inhibition of the BRET signal

Compound: C=CC(=O)N1CCN(c2ncnc3c(F)c(-c4c(O)cccc4F)c(Cl)cc23)CC1 [ARS-1620]
competition with the KRAS binding agent (BRET) (KRAS^G12V [6]): only observed for the KRAS^G12C mutant | competition with the KRAS binding agent (BRET) (KRAS [7]): only observed for the KRAS^G12C mutant | competition with the KRAS binding agent (BRET) (KRAS^G12C [8]): competition was only observed for the KRAS^G12C mutant | competition with the KRAS binding agent (BRET) (KRAS^G12D [9]): only observed for the KRAS^G12C mutant
